{"source": "patent US10647747B2", "about": "“Cyclosporin derivatives and uses thereof” (S&T Global Inc., priority 2010, dated 2020)", "note": "pEC50: −log10 of the molar value. *1 amine or outer side, *2 acyl side, *3 side chain or, on linkers, in order; H or OH if unused. Where a SMILES comes first, the peptide text is derived from it. [ ]: non-standard residue; d: D form. The star is where a group is joined. ξ: configuration not given here. NMe(dihydroBmt) = CCCC[C@@H](C)[C@@H](O)[C@H](NC)C(=O)O; MeBmt = C/C=C/C[C@@H](C)[C@@H](O)[C@H](NC)C(=O)O; X14 = CCOCOC(C)(C)C[C@@H](C(=O)[*:2])N(C)[*:1]; X11 = CN([C@@H](CC(C)(C)OCCO)C(=O)[*:2])[*:1]; X6 = CCN(CC)CCS[C@H](C(=O)[*:2])N(C)[*:1]; NMeIle(3ξ) = CCC(C)[C@H](NC)C(=O)O; NMeL = CN[C@@H](CC(C)C)C(=O)O; NMeV = CN[C@H](C(=O)O)C(C)C; dNMeC = CN[C@H](CS)C(=O)O; Et2NCH2CH2 = CCN(CC)CC*; Abu = CC[C@H](N)C(=O)O; Sar = CNCC(=O)O"}
{"tested_on": "HCV replicon in cell line ET (luc-ubi-neo/ET), Huh7 human hepatoma", "assay": "HCV subgenomic replicon assay, luciferase end point", "assay_type": "cell-based", "settings": "Hepatitis C virus, Huh-7, Table 14, HCV replicon luciferase; read-out: Antiviral activity EC50"}
{"smiles": "C/C=C/C[C@@H](C)[C@@H](O)[C@H]1C(=O)N[C@@H](CC)C(=O)N(C)[C@H](CSCCCN(C)C)C(=O)N(C)[C@@H](CC(C)(C)O)C(=O)N[C@@H](C(C)C)C(=O)N(C)[C@@H](CC(C)C)C(=O)N[C@@H](C)C(=O)N[C@H](C)C(=O)N(C)[C@@H](CC(C)C)C(=O)N(C)[C@@H](CC(C)C)C(=O)N(C)[C@@H](C(C)C)C(=O)N1C", "pEC50": 7.30}
{"smiles": "C/C=C/C[C@@H](C)[C@@H](O)[C@H]1C(=O)N[C@@H](CC)C(=O)N(C)[C@H](CSCCN(CC)CC)C(=O)N(C)[C@@H](CC(C)(C)OCOCC)C(=O)N[C@@H](C(C)C)C(=O)N(C)[C@@H](CC(C)C)C(=O)N[C@@H](C)C(=O)N[C@H](C)C(=O)N(C)[C@@H](CC(C)C)C(=O)N(C)[C@@H](CC(C)C)C(=O)N(C)[C@@H](C(C)C)C(=O)N1C", "note": "(cyclo(A[dA][NMeL][NMeL][NMeV][MeBmt][Abu][dNMeC](Et2NCH2CH2)[X14]V[NMeL]))", "pEC50": 7.70}
{"tested_on": "HCV replicon in cell line ET (luc-ubi-neo/ET), Huh7 human hepatoma", "assay": "HCV subgenomic replicon assay, luciferase end point", "assay_type": "cell-based", "settings": "Table 12, HCV replicon luciferase; read-out: Antiviral activity EC50"}
{"smiles": "C/C=C/C[C@@H](C)[C@@H](O)[C@H]1C(=O)N[C@@H](CC)C(=O)N(C)[C@H](SCCN(CC)CC)C(=O)N(C)[C@@H](C(C)CC)C(=O)N[C@@H](C(C)C)C(=O)N(C)[C@@H](CC(C)C)C(=O)N[C@@H](C)C(=O)N[C@H](C)C(=O)N(C)[C@@H](CC(C)C)C(=O)N(C)[C@@H](CC(C)C)C(=O)N(C)[C@@H](C(C)C)C(=O)N1C", "note": "(stereo partly drawn) [(R)-2-(N,N-Diethylamino)ethylthio-Sar]-3-[N-MeIle]-4-cyclosporin] (cyclo(A[dA][NMeL][NMeL][NMeV][MeBmt][Abu][X6][NMeIle(3ξ)]V[NMeL]))", "pEC50": 5.73}
{"tested_on": "HCV replicon in cell line ET (luc-ubi-neo/ET), Huh7 human hepatoma", "assay": "HCV subgenomic replicon assay, luciferase end point", "assay_type": "cell-based", "settings": "Table 13, HCV replicon luciferase; read-out: Antiviral activity EC50"}
{"smiles": "CC=CCC(C)C(O)C1C(=O)NC(CC)C(=O)N(C)C(SCCCN(CC)CC)C(=O)N(C)C(CC(C)(C)O)C(=O)NC(C(C)C)C(=O)N(C)C(CC(C)C)C(=O)NC(C)C(=O)NC(C)C(=O)N(C)C(CC(C)C)C(=O)N(C)C(CC(C)C)C(=O)N(C)C(C(C)C)C(=O)N1C", "note": "[(S)-3-(N,N-Diethylamino)propylthio-Sar]-3-[(γ-hydroxy)-N-MeLeu]-4-cyclosporin]", "pEC50": 7.15}
{"smiles": "C/C=C/C[C@@H](C)[C@@H](O)[C@H]1C(=O)N[C@@H](CC)C(=O)N(C)[C@@H](CSCCN(CC)CC)C(=O)N(C)[C@@H](CC(C)(C)O)C(=O)N[C@@H](C(C)C)C(=O)N(C)[C@@H](CC(C)C)C(=O)N[C@@H](C)C(=O)N[C@H](C)C(=O)N(C)[C@@H](CC(C)C)C(=O)N(C)[C@@H](CC(C)C)C(=O)N(C)[C@@H](C(C)C)C(=O)N1C", "note": "(single isomer, unassigned; isomer a)", "pEC50": 5.67}
{"smiles": "CCCC[C@@H](C)[C@@H](O)[C@H]1C(=O)N[C@@H](CC)C(=O)N(C)CC(=O)N(C)[C@@H](CC(C)(C)OCCO)C(=O)N[C@@H](C(C)C)C(=O)N(C)[C@@H](CC(C)C)C(=O)N[C@@H](C)C(=O)N[C@H](C)C(=O)N(C)[C@@H](CC(C)C)C(=O)N(C)[C@@H](CC(C)C)C(=O)N(C)[C@@H](C(C)C)C(=O)N1C", "note": "[[γ-(2-Hydroxyethoxy)-N-MeLeu]-4-dihydrocyclosporin] (cyclo(A[dA][NMeL][NMeL][NMeV][NMe(dihydroBmt)][Abu][Sar][X11]V[NMeL]))", "pEC50": 6.37}
{"tested_on": "HCV replicon in cell line ET (luc-ubi-neo/ET), Huh7 human hepatoma", "assay": "HCV subgenomic replicon assay, luciferase end point", "assay_type": "cell-based", "settings": "Table 14, HCV replicon luciferase; read-out: Antiviral activity EC50"}
{"smiles": "C/C=C/C[C@@H](C)[C@@H](O)[C@H]1C(=O)N[C@@H](CC)C(=O)N(C)[C@@H](COCCN(CC)CC)C(=O)N(C)[C@@H](CC(C)(C)O)C(=O)N[C@@H](C(C)C)C(=O)N(C)[C@@H](CC(C)C)C(=O)N[C@@H](C)C(=O)N[C@H](C)C(=O)N(C)[C@@H](CC(C)C)C(=O)N(C)[C@@H](CC(C)C)C(=O)N(C)[C@@H](C(C)C)C(=O)N1C", "pEC50": 7.30}
{"smiles": "C/C=C/C[C@@H](C)[C@@H](O)[C@H]1C(=O)N[C@@H](CC)C(=O)N(C)[C@H](COCCCN2CCOCC2)C(=O)N(C)[C@@H](CC(C)(C)O)C(=O)N[C@@H](C(C)C)C(=O)N(C)[C@@H](CC(C)C)C(=O)N[C@@H](C)C(=O)N[C@H](C)C(=O)N(C)[C@@H](CC(C)C)C(=O)N(C)[C@@H](CC(C)C)C(=O)N(C)[C@@H](C(C)C)C(=O)N1C", "note": "[[(R)-(3-(N-Morpholino)propoxy)methyl-Sar]-3-[(γ-hydroxy)-NMeLeu]-4-cyclosporin]", "pEC50": 7.40}
{"tested_on": "HCV replicon in cell line ET (luc-ubi-neo/ET), Huh7 human hepatoma", "assay": "HCV subgenomic replicon assay, luciferase end point", "assay_type": "cell-based", "settings": "Table 16, HCV replicon luciferase; read-out: Antiviral activity EC50"}
{"smiles": "C/C=C/C[C@@H](C)[C@@H](O)[C@H]1C(=O)N[C@@H](CC)C(=O)N(C)[C@H](CSCCCN(CC(C)C)CC(C)C)C(=O)N(C)[C@@H](CC(C)(C)O)C(=O)N[C@@H](C(C)C)C(=O)N(C)[C@@H](CC(C)C)C(=O)N[C@@H](C)C(=O)N[C@H](C)C(=O)N(C)[C@@H](CC(C)C)C(=O)N(C)[C@@H](CC(C)C)C(=O)N(C)[C@@H](C(C)C)C(=O)N1C", "pEC50": 7.40}
{"smiles": "CC=CCC(C)C(O)C1C(=O)NC(CC)C(=O)N(C)C(CSCCCCN(CC)CC)C(=O)N(C)C(CC(C)(C)O)C(=O)NC(C(C)C)C(=O)N(C)C(CC(C)C)C(=O)NC(C)C(=O)NC(C)C(=O)N(C)C(CC(C)C)C(=O)N(C)C(CC(C)C)C(=O)N(C)C(C(C)C)C(=O)N1C", "note": "(stereo not drawn)", "pEC50": 7.15}
{"smiles": "CC=CCC(C)C(O)C1C(=O)NC(CC)C(=O)N(C)C(CSCCCN2CCSCC2)C(=O)N(C)C(CC(C)(C)O)C(=O)NC(C(C)C)C(=O)N(C)C(CC(C)C)C(=O)NC(C)C(=O)NC(C)C(=O)N(C)C(CC(C)C)C(=O)N(C)C(CC(C)C)C(=O)N(C)C(C(C)C)C(=O)N1C", "note": "(stereo not drawn)", "pEC50": 7.30}
{"smiles": "C/C=C/C[C@@H](C)[C@@H](O)[C@H]1C(=O)N[C@@H](CC)C(=O)N(C)[C@H](CSCCCN2CCN(CC(C)C)CC2)C(=O)N(C)[C@@H](CC(C)(C)O)C(=O)N[C@@H](C(C)C)C(=O)N(C)[C@@H](CC(C)C)C(=O)N[C@@H](C)C(=O)N[C@H](C)C(=O)N(C)[C@@H](CC(C)C)C(=O)N(C)[C@@H](CC(C)C)C(=O)N(C)[C@@H](C(C)C)C(=O)N1C", "pEC50": 7.30}
